PubChem BioAssay (NCI)
Several values for one entry are separate records, joined by “and”; a condition that tells them apart may be missing. Identical values can stand only once.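 The compound was tested at five concentrations on cells cultured in 96-well plates, with a 48-hour exposure period. GI50 is the concentration that inhibits growth by half. TGI: total growth inhibition.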

Columns and labels:
Assay in all cases: NCI-60 cell line screen, 48 h
MDA-MB-435 = test system: MDA-MB-435
SF-268 CNS = test system: SF-268 CNS
OVCAR-4 ovarian = test system: OVCAR-4 ovarian
K-562 leukemia = test system: K-562 leukemia
HS 578T breast = test system: HS 578T breast
UO-31 renal = test system: UO-31 renal
SR leukemia = test system: SR leukemia
786-0 renal = test system: 786-0 renal
SK-MEL-28 melanoma = test system: SK-MEL-28 melanoma
MOLT-4 leukemia = test system: MOLT-4 leukemia
SN12C renal = test system: SN12C renal
U251 CNS = test system: U251 CNS
SNB-75 CNS = test system: SNB-75 CNS
DU-145 prostate = test system: DU-145 prostate
MDA-N = test system: MDA-N
NCI-H522 lung = test system: NCI-H522 lung
SNB-19 CNS = test system: SNB-19 CNS
A549 NSCLC = test system: A549 NSCLC
HOP-62 NSCLC = test system: HOP-62 NSCLC
OVCAR-8 ovarian = test system: OVCAR-8 ovarian
CAKI-1 renal = test system: CAKI-1 renal
OVCAR-5 ovarian = test system: OVCAR-5 ovarian
HL-60(TB) leukemia = test system: HL-60(TB) leukemia
TK-10 renal = test system: TK-10 renal
IGROV1 ovarian = test system: IGROV1 ovarian
LOX IMVI melanoma = test system: LOX IMVI melanoma
PC-3 prostate = test system: PC-3 prostate
UACC-62 melanoma = test system: UACC-62 melanoma
MALME-3M melanoma = test system: MALME-3M melanoma
SK-MEL-5 melanoma = test system: SK-MEL-5 melanoma
NCI-H460 lung = test system: NCI-H460 lung
NCI-H23 lung = test system: NCI-H23 lung
HT29 colon = test system: HT29 colon
NCI-H226 lung = test system: NCI-H226 lung
HCT-116 colon = test system: HCT-116 colon
HOP-92 NSCLC = test system: HOP-92 NSCLC
KM12 colon = test system: KM12 colon
M14 melanoma = test system: M14 melanoma
SW-620 colon = test system: SW-620 colon
UACC-257 melanoma = test system: UACC-257 melanoma
SK-MEL-2 melanoma = test system: SK-MEL-2 melanoma
COLO 205 colon = test system: COLO 205 colon
SF-539 CNS = test system: SF-539 CNS
RPMI-8226 leukemia = test system: RPMI-8226 leukemia
HCT-15 colon = test system: HCT-15 colon
ACHN renal = test system: ACHN renal
NCI/ADR-RES ovarian = test system: NCI/ADR-RES ovarian
SK-OV-3 ovarian = test system: SK-OV-3 ovarian
MDA-MB-231 breast = test system: MDA-MB-231 breast
EKVX NSCLC = test system: EKVX NSCLC
BT-549 breast = test system: BT-549 breast
A498 renal = test system: A498 renal
SF-295 CNS = test system: SF-295 CNS
CCRF-CEM leukemia = test system: CCRF-CEM leukemia
T-47D breast = test system: T-47D breast
OVCAR-3 ovarian = test system: OVCAR-3 ovarian
HCC-2998 colon = test system: HCC-2998 colon

With `O=C(OC1C(Oc2ccccc2COC(=O)C2(O)C=CCCC2=O)OC(CO)C(O)C1O)c1ccccc1` (centres undefined) the TGI (MDA-MB-435) was > 100 µM, the TGI (SF-268 CNS) was 93500 nM and the TGI (OVCAR-4 ovarian) was > 100000 nM. For the same compound, the TGI (K-562 leukemia) was > 100000 nM, the TGI (HS 578T breast) was 56.4 µM and the TGI (UO-31 renal) was > 100000 nM. For the same compound, the TGI (SR leukemia) was > 100 µM, the TGI (786-0 renal) was > 100000 nM and the TGI (SK-MEL-28 melanoma) was > 100 µM. The TGI (MOLT-4 leukemia) was 76900 nM, the TGI (SN12C renal) was > 100 µM and the TGI (U251 CNS) was > 100 µM. For the same compound, the TGI (SNB-75 CNS) was 60 µM, the TGI (DU-145 prostate) was > 100 µM and the TGI (MDA-N) was > 100000 nM. For the same compound, the TGI (NCI-H522 lung) was 51.1 µM, the TGI (SNB-19 CNS) was > 100 µM and the TGI (A549 NSCLC) was 38.8 µM. For the same compound, the TGI (HOP-62 NSCLC) was > 100 µM, the TGI (OVCAR-8 ovarian) was > 100 µM and the TGI (CAKI-1 renal) was 28.3 µM. For the same compound, the TGI (OVCAR-5 ovarian) was > 100 µM, the TGI (HL-60(TB) leukemia) was 54.6 µM and the TGI (TK-10 renal) was > 100000 nM. For the same compound, the TGI (IGROV1 ovarian) was > 100 µM, the TGI (LOX IMVI melanoma) was > 100000 nM and the TGI (PC-3 prostate) was > 100 µM. The TGI (UACC-62 melanoma) was > 100000 nM, the TGI (MALME-3M melanoma) was 82.1 µM and the TGI (SK-MEL-5 melanoma) was 17.9 µM. For the same compound, the TGI (NCI-H460 lung) was > 100000 nM, the TGI (NCI-H23 lung) was > 100 µM and the TGI (HT29 colon) was > 100000 nM. For the same compound, the TGI (NCI-H226 lung) was > 100 µM, the TGI (HCT-116 colon) was > 100 µM and the TGI (HOP-92 NSCLC) was 42.5 µM. For the same compound, the TGI (KM12 colon) was > 100 µM, the TGI (M14 melanoma) was > 100 µM and the TGI (SW-620 colon) was > 100 µM. The TGI (UACC-257 melanoma) was > 100000 nM, the TGI (SK-MEL-2 melanoma) was > 100 µM and the TGI (COLO 205 colon) was 90.3 µM. The TGI (SF-539 CNS) was > 100000 nM, the TGI (RPMI-8226 leukemia) was 58100 nM and the TGI (HCT-15 colon) was > 100 µM. For the same compound, the TGI (ACHN renal) was > 100 µM, the TGI (NCI/ADR-RES ovarian) was > 100 µM and the TGI (SK-OV-3 ovarian) was > 100 µM. For the same compound, the TGI (MDA-MB-231 breast) was > 100000 nM.

In the case of `[NH-]c1ncnc2c1N=C[N+]2=CC=CCO`, the TGI (MDA-N) was > 100000 nM.

With `CCC(C)C1NC(=O)C(NC(=O)C(CC(C)C)N(C)C(=O)[C@@H]2C=CCN2C(=O)[C@H](C)O)C(C)OC(=O)[C@H](Cc2ccc(OC)cc2)N(C)C(=O)[C@@H]2CCCN2C(=O)[C@H](CC(C)C)NC(=O)C(C)C(=O)[C@H](C(C)C)OC(=O)CC1O` (some centres undefined) the TGI (MDA-MB-435) was 0.0132 µM, the TGI (SF-268 CNS) was 10.9 nM and 18.6 nM and the TGI (OVCAR-4 ovarian) was 8.81 nM and 11.2 nM. For the same compound, the TGI (K-562 leukemia) was 11.6 nM and 10.4 nM, the TGI (UO-31 renal) was 62.6 nM and 406 nM and the TGI (SR leukemia) was > 100 µM. The TGI (786-0 renal) was 13.5 nM and 10.5 nM, the TGI (SK-MEL-28 melanoma) was 0.00567 µM and the TGI (EKVX NSCLC) was 34.5 nM. It also gave a TGI (MOLT-4 leukemia) of 8.05 nM, a TGI (BT-549 breast) of 15.3 nM and a TGI (SN12C renal) of 0.015 µM. For the same compound, the TGI (A498 renal) was 47.1 nM and 48.1 nM, the TGI (U251 CNS) was 0.018 µM and the TGI (SNB-75 CNS) was 0.0126 µM. It also gave a TGI (DU-145 prostate) of 0.0317 µM, a TGI (MDA-N) of 18.8 nM and a TGI (NCI-H522 lung) of 0.0108 µM. The TGI (SNB-19 CNS) was 0.0556 µM, the TGI (SF-295 CNS) was 20 nM and the TGI (A549 NSCLC) was 0.0131 µM. For the same compound, the TGI (HOP-62 NSCLC) was 0.0177 µM, the TGI (OVCAR-8 ovarian) was 0.0386 µM and the TGI (CAKI-1 renal) was 0.16 µM. For the same compound, the TGI (OVCAR-5 ovarian) was 0.0738 µM, the TGI (TK-10 renal) was 68.2 nM and 24.6 nM and the TGI (IGROV1 ovarian) was 0.0193 µM. It also gave a TGI (CCRF-CEM leukemia) of 11.4 nM, a TGI (LOX IMVI melanoma) of 10.5 nM and a TGI (PC-3 prostate) of 0.0271 µM. For the same compound, the TGI (UACC-62 melanoma) was 5 nM, the TGI (MALME-3M melanoma) was 0.0134 µM and the TGI (SK-MEL-5 melanoma) was 0.0102 µM. The TGI (NCI-H460 lung) was 12.5 nM and 22.7 nM, the TGI (T-47D breast) was 0.0109 µM and the TGI (NCI-H23 lung) was 0.00917 µM. For the same compound, the TGI (HT29 colon) was 33.5 nM and 15.5 nM, the TGI (HOP-92 NSCLC) was 0.0382 µM and the TGI (M14 melanoma) was 0.0123 µM. For the same compound, the TGI (SW-620 colon) was 0.0545 µM, the TGI (UACC-257 melanoma) was 15.6 nM and 13.4 nM and the TGI (OVCAR-3 ovarian) was 28.2 nM and 11.2 nM. It also gave a TGI (HCC-2998 colon) of 14.7 nM, a TGI (SF-539 CNS) of 4.67 nM and a TGI (RPMI-8226 leukemia) of 20.1 nM. The TGI (HCT-15 colon) was 0.111 µM, the TGI (ACHN renal) was 0.0513 µM and the GI50 (NCI/ADR-RES ovarian) was 59.4 nM. The TGI (NCI/ADR-RES ovarian) was 11.7 µM, the TGI (SK-OV-3 ovarian) was 0.0317 µM and the TGI (MDA-MB-231 breast) was 35.1 nM and 94.3 nM.

`c1ccc(N=C(N2CCCCC2)N(CCN2CCCCC2)c2ccccc2)cc1` showed a TGI (MDA-MB-435) of 9.01 µM, a TGI (OVCAR-4 ovarian) of 17000 nM and a TGI (K-562 leukemia) of 4270 nM. For the same compound, the TGI (HS 578T breast) was 3.51 µM, the TGI (UO-31 renal) was 8070 nM and the TGI (SR leukemia) was 2.31 µM. It also gave a TGI (SK-MEL-28 melanoma) of 8.65 µM, a TGI (MOLT-4 leukemia) of 1740 nM and a TGI (SN12C renal) of 12.5 µM. The TGI (U251 CNS) was 5.39 µM, the TGI (SNB-75 CNS) was 6.44 µM and the TGI (DU-145 prostate) was 12.7 µM. It also gave a TGI (MDA-N) of 2960 nM, a TGI (NCI-H522 lung) of 4.58 µM and a TGI (SNB-19 CNS) of 14.4 µM. The TGI (SF-295 CNS) was 2210 nM, the TGI (A549 NSCLC) was 14.2 µM and the TGI (HOP-62 NSCLC) was 3.07 µM. The TGI (OVCAR-8 ovarian) was 11.3 µM, the TGI (CAKI-1 renal) was 14.1 µM and the TGI (OVCAR-5 ovarian) was 8.01 µM. It also gave a TGI (HL-60(TB) leukemia) of 1.02 µM, a TGI (TK-10 renal) of 14200 nM and a TGI (IGROV1 ovarian) of 12.1 µM. It also gave a TGI (CCRF-CEM leukemia) of 2030 nM, a TGI (LOX IMVI melanoma) of 2390 nM and a TGI (PC-3 prostate) of 3.72 µM. The TGI (SK-MEL-5 melanoma) was 3.3 µM, the TGI (NCI-H460 lung) was 2020 nM and the TGI (T-47D breast) was 9.23 µM. It also gave a TGI (NCI-H23 lung) of 7.17 µM, a TGI (HT29 colon) of 2930 nM and a TGI (NCI-H226 lung) of 16 µM. It also gave a TGI (HCT-116 colon) of 4.18 µM, a TGI (HOP-92 NSCLC) of 6.2 µM and a TGI (M14 melanoma) of 16.1 µM. It also gave a TGI (SW-620 colon) of 13.7 µM, a TGI (UACC-257 melanoma) of 6610 nM and a TGI (OVCAR-3 ovarian) of 2510 nM. For the same compound, the TGI (HCC-2998 colon) was 5160 nM, the TGI (SK-MEL-2 melanoma) was 4.64 µM and the TGI (COLO 205 colon) was 11.2 µM. It also gave a TGI (RPMI-8226 leukemia) of 627 nM, a TGI (HCT-15 colon) of 12.7 µM and a TGI (ACHN renal) of 4.58 µM. It also gave a TGI (NCI/ADR-RES ovarian) of 4.29 µM, a TGI (SK-OV-3 ovarian) of 14 µM and a TGI (MDA-MB-231 breast) of 11000 nM.
